The values below come from patent US7118885B2, “Nucleic acid encoding vitamin D receptor related polypeptide” (Pfizer Inc., priority 1997, dated 2006).

For data set [1], the target named is T1, VDRRγ (Homo sapiens, UniProt O75469).
T1 sequence (O75469 1-434): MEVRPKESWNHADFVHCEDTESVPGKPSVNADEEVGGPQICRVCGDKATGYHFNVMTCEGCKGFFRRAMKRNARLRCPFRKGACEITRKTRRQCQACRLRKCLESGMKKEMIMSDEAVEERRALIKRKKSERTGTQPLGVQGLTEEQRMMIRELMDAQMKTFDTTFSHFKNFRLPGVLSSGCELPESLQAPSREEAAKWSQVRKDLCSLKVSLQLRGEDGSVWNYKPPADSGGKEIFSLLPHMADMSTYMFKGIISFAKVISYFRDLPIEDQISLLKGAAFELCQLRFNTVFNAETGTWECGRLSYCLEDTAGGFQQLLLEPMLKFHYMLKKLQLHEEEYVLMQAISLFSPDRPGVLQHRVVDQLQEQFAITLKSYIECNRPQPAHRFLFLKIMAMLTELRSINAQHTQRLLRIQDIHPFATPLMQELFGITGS
As to the kind of experiment: VDRRγ reporter gene assay in transiently transfected Caco-2 (TC7) cells. As to the method:
For identifying activators or ligands for VDRRγ, a library of substances structurally biased towards different classes of activators and ligands for nuclear receptors were tested. The activation of VDRRγ was analyzed in a reporter gene assay in transiently Caco-2 (TC7) cells (Carriere et al, 1994).
Background: In a reporter assay the amount or activity of a reporter protein is the signal.

The target in data set [2] is T2, VDRRg (Homo sapiens, UniProt O75469).
T2 construct: expressed in transfected cells
T2 sequence (O75469 1-434): T1 sequence (O75469 1-434)
Description: Similar reporter assays as used in WO 96/22390. The class given is cell-based. To be noted: data not shown.

For data set [3], the target named is T3, GAL4-DBD/VDR-LBD fusion protein (Homo sapiens, UniProt P11473).
T3 construct: fusion proteins of the GAL4-DBD fused to the LBD of either the VDR or the VDRR; expressed in transfected cells; host or cells: CV-1 cells
T3 sequence (P11473 127-423 limits assumed): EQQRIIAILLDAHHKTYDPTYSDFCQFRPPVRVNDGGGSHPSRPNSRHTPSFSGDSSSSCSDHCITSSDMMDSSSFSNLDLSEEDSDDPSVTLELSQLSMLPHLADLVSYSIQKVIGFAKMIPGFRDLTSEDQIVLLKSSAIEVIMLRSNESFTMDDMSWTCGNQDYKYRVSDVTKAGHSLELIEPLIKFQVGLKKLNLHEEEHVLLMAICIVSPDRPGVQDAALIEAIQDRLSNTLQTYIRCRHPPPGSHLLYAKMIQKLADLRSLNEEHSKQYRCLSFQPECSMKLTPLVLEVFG
As to the kind of experiment: Transient co-transfection of CV-1 cells, GAL4-DBD/VDR-LBD with GAL4-luciferase reporter. The class given is cell-based. The conditions noted are these: vitamin D3 1 μM, 48 hours. On the procedure:
(§1) Transient transfections were performed to analyze if vitamin D3 activate the VDRRγ polypeptide. To this end, transient co-tansfections of CV-1 cells were performed with expression plasmids encoding fusion proteins of the GAL4-DBD fused to the LBD of either the VDR or the VDRR together with a reporter-plasmid containing five GAL4 responsive elements upstream of the luciferase gene. After transfection, cells were treated with vehicle (DMSO) alone or with vitamin D3 for 48 hours followed by harvesting of the cells and measurement of the luciferase activity in cell extracts.

The target of data set [4] is T4, GAL4-DBD/VDRRγ-LBD fusion protein (Homo sapiens, UniProt O75469).
T4 construct: fusion proteins of the GAL4-DBD fused to the LBD of either the VDR or the VDRR; expressed in transfected cells; host or cells: CV-1 cells
T4 sequence (O75469 146-433 limits assumed): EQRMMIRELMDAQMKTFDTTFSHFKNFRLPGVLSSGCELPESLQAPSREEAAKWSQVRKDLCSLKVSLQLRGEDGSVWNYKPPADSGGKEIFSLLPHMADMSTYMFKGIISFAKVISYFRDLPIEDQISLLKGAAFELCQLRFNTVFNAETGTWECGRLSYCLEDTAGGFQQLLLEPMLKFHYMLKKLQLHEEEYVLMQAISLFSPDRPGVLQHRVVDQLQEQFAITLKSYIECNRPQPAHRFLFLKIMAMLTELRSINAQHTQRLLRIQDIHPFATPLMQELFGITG
Description: Transient co-transfection of CV-1 cells, GAL4-DBD/VDRRγ-LBD with GAL4-luciferase reporter. It is filed as cell-based. The conditions noted are these: vitamin D3 1 μM, 48 hours. As to the method:
as §1

As to `CC(=O)[C@H]1CC[C@H]2[C@@H]3CC[C@H]4CC(=O)CC[C@]4(C)[C@H]3CC[C@]12C` [5α-pregnane-3,20-dione], the “activation of VDRRγ (in words)” value in data set [1] (Caco-2 (TC7) cells, FIG. 10) is given as “did not activate”.
For the molecule `CC(=O)[C@H]1CC[C@H]2[C@@H]3CC[C@@H]4CC(=O)CC[C@]4(C)[C@H]3CC[C@]12C` [5β-pregnane-3,20-dione], in data set [1] (Caco-2 (TC7) cells, FIG. 10), the “activation of VDRRγ (in words)” value was “efficient activation”.
For `CC(=O)[C@H]1[C@H](C#N)C[C@H]2[C@@H]3CC=C4C[C@@H](O)CC[C@]4(C)[C@H]3CC[C@@]21C` [PCN, pregnenolone 16α-carbonitrile], the “activation of VDRRγ (in words)” value in data set [1] (Caco-2 cells, 10 μM, FIG. 11) is listed as “not activated”. Besides, the “activation of human VDRRγ polypeptides (summary statement)” value in data set [1] (VDRRγ-1 and VDRRγ-2, no concentration given) is reported as “not activated”.
With `CC#C[C@]1(O)CC[C@H]2[C@@H]3CCC4=CC(=O)CCC4=C3[C@@H](c3ccc(N(C)C)cc3)C[C@@]21C` [RU486], the “increase in VDRRγ mediated reporter gene activity” value in data set [1] was “slight increase (two fold)”.
As for `CCCCOC(=O)c1ccc(N)cc1` [butyl 4-NH2 Benzoate], in data set [2], the “activation of VDRRg” value is listed as “did not activate”.
On to `C=C1CC[C@H](O)C/C1=C/C=C1\CCC[C@]2(C)[C@@H]([C@H](C)CCCC(C)C)CC[C@@H]12` [vitamin D3], for which, in data set [3], the “transactivation of GAL4-DBD/VDR-LBD (luciferase activity)” value was “transactivate”. For the same molecule, in data set [4], the “transactivation of GAL4-DBD/VDRRγ-LBD (luciferase activity)” value is on record as “not”.
